The values below are quoted from earlier work in patent publication US5536812A, “Calcitonin analogue and use thereof” (Sanwa Kagaku Kenkyusho Co., Ltd., priority 1994, dated 1996).

The conditions of data set [1]: analogue of Jap. Pat. Hei 4-59795(A) / EP-A-0 464 549.
In a further data set the test system is Wister male rat. As to conditions: standard manufactured by Penisula Lab. Inc., Lot No. 015405.

On to salmon I calcitonin-Hse^33 -NH2, for which the “biological activities compared with native Salmon I calcitonin” value in data set [1] is “substantially same with the native Salmon I calcitonin”.

Turning to eel calcitonin, the “Activity of the eel calcitonin standard” value in the data set on Wister male rat is given as 4500 IU/mg.
